Measured values published in PMC3491036 (PLoS ONE, 2012).
Where two headings read alike, the source gives them in different places.

How the values were obtained:
XA binding sites = test: Displacement of [3H]XA specific binding by competitors; parameters: species or system rat; details: for displacement of radioactive XA specific binding: compound at 200 µM, displacement by 200 µM XA set at 100%
Procedure: Membranes (from brain or cell cultures) were incubated for 30 min at 0°C in 50 mM Pipes buffer, pH 7.4 in the presence of [^3H]-XA (2 µCi per µmole total XA at various concentrations). Non-specific binding was determined with 1 mM non-radioactive XA in the medium. Bound from free ligand was separated by rapid filtration on 25 mm Whatman GF/B filters and washing with incubation buffer (3×3 ml at 0°C). Radioactivity on filters was measured by liquid scintillation counting.
Two approaches were used for screening the pharmacological properties of XA specific binding. First, we tested at rather high concentration (200 µM) a battery of putative ligands for these sites. […] The fact that glutamate displaced not more than 10% of radioactive XA eliminates possible binding of XA on glutamate receptors under our conditions.

[1] = tested on: differentiated NCB-20 cells; test: Cell-attached patch-clamp recording; assay type: cell-based, mouse neuroblastoma / Chinese hamster brain cell hybrid
Procedure: (§1) NCB-20 cells were plated at low density (10^4 cells/dish) in 35-mm dishes and differentiated with 1 mM db-cAMP. The culture medium was replaced twice a week and the cells were used after 5 days in culture. Cells were recorded either in cell-attached or whole-cell configuration of the patch-clamp technique using an Axopatch-B200 amplifier (Axon Instruments, CA, USA) in its voltage-clamp mode. […] Junction potentials were calculated using the routine procedure in the Clampex software (Axon instruments, CA, USA) and taken into account for current-voltage (I–V) relationships and reversal potential calculation according to the recording configuration.
For cell-attached recording the pipette was filled with a medium containing (in mM): N-Methyl-D-Glucamine (NMDG) chloride 140, KCl 1, MgCl2 10, EGTA 5, TEA-Cl 15, HEPES 10, pH = 7.4. To maintain the cell membrane potential close to zero, the recorded cells were continuously superfused with a bath solution containing (in mM): KCl 140, NaCl 1, MgCl2 1, CaCl2 0.5, EGTA-K 1, HEPES 10, D-glucose 10, pH = 7.4. […] Drugs were dissolved in DMSO and diluted in control solutions such that DMSO in the applied solution was diluted by a factor of at least 10^4. Drugs were applied to the recorded cells through a multi-barrel perfusion system, the rapid solution exchanger RCS-160 (Bio-Logic, Grenoble, France). […] The first tube was filled with control solution and was used to maintain a continuous superfusion of the recorded cell between applications. The selected tube was placed in front of the cell by axial rotation of calibrated angles and the application started when the selected tube takes place in front of the cell.
(§2) Data were analyzed offline using the clampfit routine of the Pclamp software package. The given results are means±SEM and statistical significance of the difference between means was determined using one way ANOVA followed by Dunnett's Multiple Comparison test.

NCB-20 cells = test: Fluo-4 monitoring of [Ca2+]i changes; assay type: cell-based, mouse neuroblastoma / Chinese hamster brain cell hybrid
Procedure: The method of cellular calcium measurement used was as described previously. Briefly, NCB-20 cells were plated in glass-bottomed culture dishes and incubated at 37°C for four days. […] Then the cells were washed with Krebs for 30 min at room temperature in the dark. All settings of the laser (Argon-Krypton laser, turned to 488 nm), optical filter (BF 530/30) and microscope (Leica TCS-SP confocal inverted microscope) as well as data acquisition were controlled by the LCS (Leica Confocal System) software.
Images were recorded at a frequency of 0.1 Hz. Analysis was performed by defining regions of interest (ROI) in the first image. Values are expressed as the percentage of fluorescence change with respect to control and calculated as F/F 0 (%) (where F is the fluorescence intensity at a given time and F 0 the basal fluorescence intensity at the beginning of the experiment).
The cells were continuously superfused with normal Krebs medium and transiently submitted to the tested drug using a peristaltic pump with a flow rate of 1 ml/min. For each analyzed cell, the mean and the standard deviation (SD) of the F/F 0 of fluorescence were measured during 1–2 min before (base line) and after (signal) drug application and compared. Statistical significance of the difference between means was determined using one way ANOVA followed by Dunnett's Multiple Comparison Test for repeated measurements on absolute levels of fluo-4 fluorescence.

[2] = tested on: XA binding sites on NCB-20 neuroblastoma cells; test: [3H]-XA saturation binding on NCB-20 neuroblastoma cell membranes; parameters: species or system mouse neuroblastoma / Chinese hamster brain cell hybrid; details: NCB-20 membranes, read-out: dissociation constant (Kd)
Procedure: (§3) Neurons were scraped into potassium phosphate buffer 50 mM, EDTA 2 mM, pH 6.0 at 0°C. After centrifugation at 2,000 g for 3 min to eliminate nuclei and large fragments, the supernatant was spun down at 15,000 g for 10 min; the pellet was washed with the same buffer and directly used for binding experiments.
(§4) Bound from free ligand was separated by rapid filtration on 25 mm Whatman GF/B filters and washing with incubation buffer (3×3 ml at 0°C). Radioactivity on filters was measured by liquid scintillation counting.

[3] = tested on: rat brain synaptosomal membranes; details: read-out: EC50 of GTP-γ-S binding; XA 0.5 to 50 µM, 5 µM GDP, 20 mM MgCl2
Procedure: The Scintillation Proximity Assay (SPA) of Amersham was used. […] Brain synaptosomal membranes were thus incubated in assay buffer (pH 7.4) containing 20 mM HEPES, 100 mM NaCl, 20 mM MgCl2 with 0.3 nM [^35S]GTP-γ-S and 5 µM GDP for 30 min at room temperature. Non-specific binding was determined in the presence of 200 µM GTP. WGA SPA beads were added and the mixture was incubated at room temperature for a further 30 min. The plates were centrifuged at 1,200 g for 5 min and SPA cpm were determined by scintillation counting.

[4] = peripheral administration; cited from earlier work
[5] = tested on: XA binding sites on crude synaptosomal membranes from rat brain; test: [3H]-XA saturation and kinetic binding on crude synaptosomal membranes from rat brain
Procedure: Brains were rapidly extracted from adult male Wistar rats killed by decapitation after being stunned. All the following procedures were done with buffers cooled at 0°C. Brains were homogenized with a motor driven Teflon/glass apparatus in 10 vol (W/V) of sucrose 0.32 M containing potassium phosphate buffer pH 7.2 and 2 mM EDTA. After centrifugation at 1,500 g for 10 min to remove the crude nuclear fraction, the supernatant was spun at 35,000 g for 20 min. The pellet obtained was resuspended in lysis buffer (2 mM EDTA/water pH 6.0 at 0°C, spun at 100,000 g for 20 min). After washing the pellet with potassium phosphate buffer 50 mM, pH 6.0, the crude membrane fraction was directly used for further experiments or stored at −80°C.
as §4

various cell cultures = details: concentration of 10 µM; cited from earlier work
[6] = tested on: differentiated NCB-20 cells; test: cells
Procedure: as §1, §2

[7] = tested on: XA binding sites on IMR-32 neuroblastoma cells; test: [3H]-XA saturation binding on IMR-32 neuroblastoma cell membranes; parameters: species or system human; details: IMR-32 membranes, read-out: dissociation constant (Kd)
Procedure: Cultures were maintained for one week at 37°C in the presence of CO2 (5%).
as §3, §4

[8] = tested on: 75 transmembrane and soluble receptors, ion channels and monoamine transporters; test: Cerep high-throughput profile screening; assay type: binding; details: XA at 10 µM
Procedure: Secondly, to extend the pharmacological profile of XA, this compound was tested on high-throughput profile screening which involved a collection of 75 transmembrane and soluble receptors, ion channels and monoamine transporters (Cerep, France Laboratories, Poitiers). XA was tested on these collections of proteins at 10 µM concentration.

[9] = frequency histogram of the illustrated XA response
[10] = illustrated response to 10 µM XA, NMDG-Cl pipette, ramp protocol

For `NCCCC(=O)O` [GABA], the “displacement of radioactive XA specific binding” value (from here on “displacement”) (XA binding sites) was “very low potency”.

In the case of `O=C(O)c1cc(O)c2c(Cl)cc(Cl)c(O)c2n1` [NCS-482], the IC50 (XA binding sites) is reported as 350 nM and the “functional properties in patch-clamp experiments” value (shortened to “functional properties”) [1] is reported as “agonistic”.

For `Nc1cccc2c(O)cc(C(=O)O)nc12` [NCS-486], the IC50 (XA binding sites) was 14600 nM, the “fluo-4 fluorescence (F/F0)” value (NCB-20 cells; 100 µM NCS-486 applied alone, 5 min) was 83.9±2.7% and the “fluo-4 fluorescence (F/F0)” value (NCB-20 cells; 100 µM NCS-486 with 25 µM XA, 5 min) was 86.9±0.7%. For the same compound, the “functional properties” value [1] was “antagonistic”, the “reduction of the agonist-induced current-response” value (“reduction” for short) ([1]; NCS-486 20 µM co-applied with 5 µM XT-21) was 86.1±5.0% and the “reduction” value ([1]; NCS-486 20 µM co-applied with 10 µM XA) was 88.3±3.8%. For the same compound, the “reduction” value ([1]; NCS-486 20 µM co-applied with 18 µM NCS-482) was 88.7±3.2% and the “effect when applied alone” value ([1]; NCS-486 20 µM, 6 cells tested) was “did not have any effect by itself”.

With `O=C(O)c1cc(O)c2cccc(O)c2n1` [XA, Xanthurenic acid] the IC50 (XA binding sites) was 300 nM, the Kd [2] was 1300 nM and the “persistence of signal before returning to basal levels” value (NCB-20 cells; 10 µM XA) was “about 5 min”. The “start of signal after XA application” value (NCB-20 cells; 10 µM XA) was “about 1 min”, the “intensity of fluo-4 signal above basal levels” value (NCB-20 cells; 10 µM XA, 6 min application) was 60–80% and the “fluo-4 fluorescence (F/F0)” value (NCB-20 cells; 25 µM XA after 5 min washout of NCS-486) was 134.9±6.5%. The “mean apparent maximum of the response (F/F0)” value (NCB-20 cells; XA 1 to 10 µM) was “about 157±3%”, the EC50 (NCB-20 cells; read-out: EC50 of first (activation) phase of Ca2+ response) was 1400 nM and the EC50 [3] was 2000 ± 1900 nM. For the same compound, the brain penetration [4] was “penetrates the brain freely”, the Kob ([5]; [3H]-XA 0.2 µM, pH 7.4, 0°C) was 1.44 min⁻¹ and the Kd ([5]; from Kob and Koff, read-out: calculated Kd (from rate constants)) was 1400 nM. The Kd ([5]; saturation experiments, crude brain synaptosomal membranes, pH 7.4, 0°C, read-out: dissociation constant (Kd)) was 740 nM, the “Er1, global mean value” ([1]; all XA responses, mean ± SEM) was −32.2±4.0 mV and the “Er2, global mean value” ([1]; all XA responses, mean ± SEM) was −13.9±1.1 mV. For the same compound, the “Er3, global mean value” ([1]; all XA responses, mean ± SEM) was −1.0±0.6 mV, the “Er4, global mean value” ([1]; all XA responses, mean ± SEM) was 11.5±0.8 mV and the “Er5, global mean value” ([1]; all XA responses, mean ± SEM) was 31.1±2.0 mV. For the same compound, the “Er1, mean of Gaussian fit” value [1, 9] was −23.2 mV, the “Er2, mean of Gaussian fit” value [1, 9] was −9.6 mV and the “Er3, mean of Gaussian fit” value [1, 9] was 0.8 mV. The “Er4, mean of Gaussian fit” value [1, 9] was 12.6 mV, the “Er5, mean of Gaussian fit” value [1, 9] was 20.3 mV and the “reversal potential (Er), position 1 (initial value)” value [1, 10] was −9 mV. The “reversal potential (Er), position 2” value [1, 10] was “about 14 mV”, the “reversal potential (Er), position 3” value [1, 10] was roughly 25 mV and the “reversal potential (Er), position 4” value [1, 10] was roughly −1 mV. The “reversal potential (Er), position 5” value [1, 10] was roughly −26 mV, the “toxicity in cell cultures” value (various cell cultures) was “apoptotic-like cell death” and the Hill coefficient ([6]; Hill fit of dose-response) was 3.5. For the same compound, the maximal conductance ([6]; Hill fit of dose-response) was 12.5 nS, the “cells tested showing an XA induced response” value ([6]; XA 1 to 30 µM, whole-cell) was “about 71%” and the “reversal potential of XA-induced current” value ([6]; high chloride pipette medium) was −3.3±4.0 mV. For the same compound, the “reversal potential of XA-induced current” value ([6]; low chloride pipette medium) was −3.8±2.5 mV, the EC50 ([6]; read-out: EC50 of XA activated conductance) was 11700 ± 2200 nM and the Kd [7] was 750 nM. For the same compound, the “competition on the binding of specific ligands of the 75 proteins” value [8] was “No significant competitive properties” and the “effect on adenosine, benzodiazepine, dopamine, GABA, canabinoid, histamine, muscarinic, opioid, purinergic and serotonin receptors” value [8] was “no effect”.

With `O=C(O)c1cc(O)c2cc(-c3ccccc3)cc(O)c2n1` [XT-21] the IC50 (XA binding sites) was 4600 nM, the “functional properties” value [1] was “agonistic” and the “response amplitude relative to 10 µM XA” value ([1]; XT-21 5 µM, cell-attached) was “about 2.5 fold”. The “response amplitude relative to 18 µM NCS-482” value ([1]; XT-21 5 µM, cell-attached) was roughly 1.5 fold.

With `O=C(O)c1cc(=O)c2ccccc2[nH]1` [kynurenic acid] the “displacement” value (XA binding sites) was 30%.

For `O=C(O)c1ccccn1` [picolinic acid], the IC50 (XA binding sites) was 41000 ± 5000 nM and the “displacement” value (XA binding sites) was 60%.

With `O=C(O)c1cccnc1C(=O)O` [quinolinic acid] the “displacement” value (XA binding sites) was 40%.
